According to patent publication US20260217698A1 (BEYANG THERAPEUTICS CO., LTD., priority 2022, published 2026):

Columns and labels:
VEGFR1 = molecular target: T1, VEGFR1 (Homo sapiens, UniProt P17948); assay: Kinase inhibition, Mobility Shift Assay/IMAP, VEGFR1; format: biochemical
T1 construct: purchased Invitrogen PR6731B
Source text: (§1) This assay directly monitored the ability of compounds to inhibit kinase phosphorylation by measuring non-phosphorylated and phosphorylated substrates in kinase reactions by using Mobility Shift Assays/IMAP™ analysis.
(§2) Read the conversion ratio data on CaliperEZ Reader II. Convert conversion rates into inhibition ratio data.
(§3) “Min” indicates the readout of the control well without the addition of enzymes; and “Max” indicates the readout of the control well with the addition of DMSO Fit IC50 values with XL Fit excel add-in version […].
(§4) X indicates the log value of compound concentration, and Y indicates the inhibition ratio (% inhibition).

VEGFR3 = molecular target: T2, VEGFR3 (Homo sapiens, UniProt P35916); assay: Kinase inhibition, Mobility Shift Assay/IMAP, VEGFR3; format: biochemical
T2 construct: purchased Invitrogen PV4129
Source text: as §1, §2, §3, §4

VEGFR2 = VEGFR2 (Homo sapiens, UniProt P35968); assay: Kinase inhibition, Mobility Shift Assay/IMAP, VEGFR2; format: biochemical; design: purchased Carna 08-191
Source text: as §1, §2, §3, §4

TIE2 = molecular target: T3, TIE2 (Homo sapiens, UniProt Q02763); assay: Kinase inhibition, Mobility Shift Assay/IMAP, TIE2; format: biochemical
T3 construct: purchased BPS 40270
Source text: as §1, §2, §3, §4

EGFR = molecular target: T4, EGFR (Homo sapiens, UniProt P00533); assay: Kinase inhibition, Mobility Shift Assay/IMAP, EGFR; format: biochemical
T4 construct: purchased Carna 08-115
Source text: as §1, §2, §3, §4

melanin = assay: Binding capacity of compounds to melanin; format: in vitro ADME, cuttlefish (Sepia officinalis); details: cuttlefish (Sepia officinalis), melanin suspension (1 mg/mL); 1 mg/mL melanin in PBS pH 7.4, 2 μM compound, 2 h at 37° C.; read-out: Fu % (percentage of free drug)
Source text: Pigmented eye tissues contain melanin in intracellular melanosomes. Drugs bind to melanin to varying degrees, ranging from non-binding to extensive binding. Therefore, melanin binding is an important feature that affects drug delivery and biodistribution in the eye. The binding capacity of the compound to the melanin must be considered in the development of ophthalmic drugs.
Melanin was derived from the melanin of cuttlefish (Sepia officinalis) and was commercially available from Sigma Aldrich (St Louis, MO).
First, prepare 1 mg/mL melanin suspension with PBS (pH 7.4). As a washing step for the matrix, centrifuge the suspended particles for 5 min at 3000 rpm. Resuspend the resulting particles in a fresh PBS buffer, heat to 37° C. over continuous shaking and incubate it for 1 h. Accurately pipette 2 μL of the test stock solution (0.1 mM) into 98 μL of melanin suspension (1 mg/mL) to achieve a final incubation concentration of 2 μM. Similarly, accurately pipette 2 μL of the stock solution (0.1 mM) to 98 μL of PBS buffer (containing 0.1% BSA) as a blank control sample. Incubate the samples in a shaker (80-90 rpm) for 2 h at 37° C. Then, centrifuge the samples at room temperature. Pipette 50 μL of the supernatant and add 50 μL of precipitant (containing an internal standard). After protein precipitation of all the above samples, centrifuge the samples to collect the supernatants, dilute the supernatants with water (if necessary) and inject them for analysis. At the same time, measure the positive controls, including the high-binding compounds Sunitinib and chloroquine and the low-binding compound celecoxib. Establish an LC-MS/MS method for determining compound concentrations, and calibrate the peak area ratio of analyte/internal standard (Analyte/AIS) in the measured sample by the dilution factor to take it as an alternative concentration for the sample for data processing. The binding rate (Fb) of a compound in melanin was calculated as: […]
Ctest was the concentration of the compound in the melanin-incubated sample or the peak area ratio of the test compound to the internal standard. Ccontrol was the concentration of the compound in the blank control sample or the peak area ratio of the test compound to the internal standard. […]

Sequence of VEGFR2 (P35968 790-1356 limits assumed): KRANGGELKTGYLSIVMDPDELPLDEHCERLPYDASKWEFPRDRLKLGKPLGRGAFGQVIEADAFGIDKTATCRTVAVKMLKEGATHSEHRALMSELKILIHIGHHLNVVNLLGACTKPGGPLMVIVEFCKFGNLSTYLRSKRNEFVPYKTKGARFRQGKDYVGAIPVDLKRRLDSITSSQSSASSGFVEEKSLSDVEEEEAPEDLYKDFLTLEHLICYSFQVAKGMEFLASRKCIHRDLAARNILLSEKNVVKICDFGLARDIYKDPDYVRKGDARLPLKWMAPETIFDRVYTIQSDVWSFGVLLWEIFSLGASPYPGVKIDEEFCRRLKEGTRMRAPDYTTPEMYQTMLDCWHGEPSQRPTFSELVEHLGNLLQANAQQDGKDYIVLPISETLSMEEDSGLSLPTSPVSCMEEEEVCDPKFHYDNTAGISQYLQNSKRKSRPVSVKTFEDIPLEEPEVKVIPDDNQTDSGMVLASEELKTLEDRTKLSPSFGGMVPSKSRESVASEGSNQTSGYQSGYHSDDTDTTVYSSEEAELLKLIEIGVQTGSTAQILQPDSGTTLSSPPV
T1 sequence (P17948 27-1338): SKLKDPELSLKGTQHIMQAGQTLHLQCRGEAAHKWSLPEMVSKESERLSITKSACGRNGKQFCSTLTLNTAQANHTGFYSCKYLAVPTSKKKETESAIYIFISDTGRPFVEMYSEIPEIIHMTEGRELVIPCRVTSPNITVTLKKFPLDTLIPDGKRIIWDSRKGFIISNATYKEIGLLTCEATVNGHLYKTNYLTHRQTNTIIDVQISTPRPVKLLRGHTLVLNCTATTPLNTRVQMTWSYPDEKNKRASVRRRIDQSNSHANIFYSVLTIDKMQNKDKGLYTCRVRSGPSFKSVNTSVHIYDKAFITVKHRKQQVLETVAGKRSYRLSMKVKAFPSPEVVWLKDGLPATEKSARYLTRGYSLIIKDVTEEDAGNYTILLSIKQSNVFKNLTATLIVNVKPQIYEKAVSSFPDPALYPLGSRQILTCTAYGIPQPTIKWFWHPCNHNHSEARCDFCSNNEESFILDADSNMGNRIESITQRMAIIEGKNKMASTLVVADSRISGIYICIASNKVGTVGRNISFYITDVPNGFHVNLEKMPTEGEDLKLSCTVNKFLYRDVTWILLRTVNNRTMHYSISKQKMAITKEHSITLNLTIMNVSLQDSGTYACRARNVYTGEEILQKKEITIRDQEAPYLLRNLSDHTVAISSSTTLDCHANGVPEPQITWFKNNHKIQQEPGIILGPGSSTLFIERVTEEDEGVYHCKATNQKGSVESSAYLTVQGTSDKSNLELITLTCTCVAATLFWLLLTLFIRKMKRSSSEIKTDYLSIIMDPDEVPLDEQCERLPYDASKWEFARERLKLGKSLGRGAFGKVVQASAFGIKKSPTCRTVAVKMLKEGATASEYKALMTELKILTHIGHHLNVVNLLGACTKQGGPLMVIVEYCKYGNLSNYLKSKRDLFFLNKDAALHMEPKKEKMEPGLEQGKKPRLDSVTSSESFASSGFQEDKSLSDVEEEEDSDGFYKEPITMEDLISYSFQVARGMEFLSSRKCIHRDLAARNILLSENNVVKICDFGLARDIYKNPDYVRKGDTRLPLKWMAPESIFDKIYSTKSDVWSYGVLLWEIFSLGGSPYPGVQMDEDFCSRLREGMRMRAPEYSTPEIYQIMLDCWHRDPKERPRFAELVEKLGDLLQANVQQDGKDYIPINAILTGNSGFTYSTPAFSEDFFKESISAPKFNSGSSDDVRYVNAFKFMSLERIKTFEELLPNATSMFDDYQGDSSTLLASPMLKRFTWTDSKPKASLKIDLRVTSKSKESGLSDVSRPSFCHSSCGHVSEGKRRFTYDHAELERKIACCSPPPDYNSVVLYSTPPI
T4 sequence (P00533 669-1210 limits assumed): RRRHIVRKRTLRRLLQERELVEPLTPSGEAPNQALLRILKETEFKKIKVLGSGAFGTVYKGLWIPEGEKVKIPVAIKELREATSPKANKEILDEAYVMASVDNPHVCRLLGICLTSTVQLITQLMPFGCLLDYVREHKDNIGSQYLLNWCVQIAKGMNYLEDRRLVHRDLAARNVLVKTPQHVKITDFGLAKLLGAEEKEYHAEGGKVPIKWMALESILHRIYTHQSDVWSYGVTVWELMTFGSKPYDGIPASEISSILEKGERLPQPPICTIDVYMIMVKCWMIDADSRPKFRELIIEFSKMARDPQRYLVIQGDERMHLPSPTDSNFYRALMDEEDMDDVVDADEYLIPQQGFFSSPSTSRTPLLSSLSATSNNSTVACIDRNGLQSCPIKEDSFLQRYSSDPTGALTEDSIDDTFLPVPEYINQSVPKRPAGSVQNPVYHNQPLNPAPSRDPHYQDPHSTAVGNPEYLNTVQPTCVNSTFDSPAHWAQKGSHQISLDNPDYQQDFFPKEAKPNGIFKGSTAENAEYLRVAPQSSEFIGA
T3 sequence (Q02763 23-1124): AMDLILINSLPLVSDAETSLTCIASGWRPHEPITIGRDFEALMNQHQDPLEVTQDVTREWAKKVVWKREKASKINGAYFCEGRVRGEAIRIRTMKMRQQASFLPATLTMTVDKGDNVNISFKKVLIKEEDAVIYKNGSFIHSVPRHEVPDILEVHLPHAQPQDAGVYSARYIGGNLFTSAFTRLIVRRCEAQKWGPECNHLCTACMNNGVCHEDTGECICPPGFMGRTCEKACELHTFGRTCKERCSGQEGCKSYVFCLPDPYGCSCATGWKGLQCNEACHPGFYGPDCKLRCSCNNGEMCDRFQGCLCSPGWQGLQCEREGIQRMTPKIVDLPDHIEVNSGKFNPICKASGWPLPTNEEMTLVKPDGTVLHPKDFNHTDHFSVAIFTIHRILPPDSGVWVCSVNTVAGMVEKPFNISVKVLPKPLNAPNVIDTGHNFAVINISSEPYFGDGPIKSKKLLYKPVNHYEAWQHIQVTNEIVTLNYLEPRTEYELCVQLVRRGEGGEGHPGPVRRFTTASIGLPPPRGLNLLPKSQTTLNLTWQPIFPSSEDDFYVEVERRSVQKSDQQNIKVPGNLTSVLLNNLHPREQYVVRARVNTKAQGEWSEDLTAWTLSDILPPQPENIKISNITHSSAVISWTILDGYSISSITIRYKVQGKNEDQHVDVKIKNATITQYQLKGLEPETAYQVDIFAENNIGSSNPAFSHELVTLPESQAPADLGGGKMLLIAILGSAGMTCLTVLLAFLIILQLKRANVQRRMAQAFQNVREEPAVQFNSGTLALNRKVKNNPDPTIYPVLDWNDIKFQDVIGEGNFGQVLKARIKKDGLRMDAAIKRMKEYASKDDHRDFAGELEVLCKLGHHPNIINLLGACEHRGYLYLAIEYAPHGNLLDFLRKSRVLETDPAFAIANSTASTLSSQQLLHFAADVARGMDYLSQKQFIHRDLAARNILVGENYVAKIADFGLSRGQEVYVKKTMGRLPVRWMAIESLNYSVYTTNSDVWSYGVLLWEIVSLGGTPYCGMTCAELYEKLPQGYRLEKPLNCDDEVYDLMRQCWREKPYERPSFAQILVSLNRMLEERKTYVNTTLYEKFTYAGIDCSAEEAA
T2 sequence (P35916 25-1363): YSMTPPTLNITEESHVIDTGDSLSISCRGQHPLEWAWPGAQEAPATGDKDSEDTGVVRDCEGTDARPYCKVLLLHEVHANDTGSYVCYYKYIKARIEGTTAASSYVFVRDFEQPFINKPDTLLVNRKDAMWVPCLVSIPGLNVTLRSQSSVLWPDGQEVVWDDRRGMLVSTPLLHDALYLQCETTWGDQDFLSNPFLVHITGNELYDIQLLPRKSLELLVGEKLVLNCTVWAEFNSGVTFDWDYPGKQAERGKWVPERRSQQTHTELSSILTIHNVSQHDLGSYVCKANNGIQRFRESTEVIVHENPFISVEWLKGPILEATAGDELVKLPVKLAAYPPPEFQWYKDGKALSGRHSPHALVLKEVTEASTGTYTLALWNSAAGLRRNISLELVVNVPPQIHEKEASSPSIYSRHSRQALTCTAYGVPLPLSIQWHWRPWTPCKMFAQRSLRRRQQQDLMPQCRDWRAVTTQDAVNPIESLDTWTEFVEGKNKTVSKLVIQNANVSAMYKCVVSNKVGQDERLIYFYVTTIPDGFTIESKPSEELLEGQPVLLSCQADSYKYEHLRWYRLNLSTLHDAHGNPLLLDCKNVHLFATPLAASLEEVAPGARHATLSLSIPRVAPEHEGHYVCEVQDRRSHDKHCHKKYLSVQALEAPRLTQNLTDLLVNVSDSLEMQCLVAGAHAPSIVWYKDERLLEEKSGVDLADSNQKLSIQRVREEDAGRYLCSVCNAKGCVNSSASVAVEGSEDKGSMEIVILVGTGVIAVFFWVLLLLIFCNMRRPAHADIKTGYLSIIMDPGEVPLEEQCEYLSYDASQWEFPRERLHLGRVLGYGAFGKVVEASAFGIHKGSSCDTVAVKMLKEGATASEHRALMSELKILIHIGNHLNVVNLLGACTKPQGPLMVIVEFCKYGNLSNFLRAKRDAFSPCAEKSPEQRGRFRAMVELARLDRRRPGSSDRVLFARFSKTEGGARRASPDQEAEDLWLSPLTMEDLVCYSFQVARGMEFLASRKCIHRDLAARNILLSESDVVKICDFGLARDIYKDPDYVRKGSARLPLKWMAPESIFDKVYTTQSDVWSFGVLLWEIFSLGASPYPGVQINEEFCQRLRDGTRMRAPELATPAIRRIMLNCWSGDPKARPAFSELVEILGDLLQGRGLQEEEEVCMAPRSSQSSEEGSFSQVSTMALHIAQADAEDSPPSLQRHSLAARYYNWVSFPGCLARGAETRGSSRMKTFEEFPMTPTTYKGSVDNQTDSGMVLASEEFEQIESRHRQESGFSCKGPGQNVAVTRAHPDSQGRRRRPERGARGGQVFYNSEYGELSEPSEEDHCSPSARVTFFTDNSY

Row | SMILES | IC50 (VEGFR1) | IC50 (VEGFR3) | IC50 (VEGFR2) | IC50 (TIE2) | IC50 (EGFR) | fraction unbound at 2 h, 2 μM (melanin)
1 | NC(=O)c1c(OCc2c(F)cc(Br)cc2F)nsc1Nc1cnn(CCN2CCNCC2)c1 [Compound T050, 3-((4-bromo-2,6-difluorobenzyl)oxy)-5-((1-(2-(piperazin-1-yl)ethyl)-1H-pyrazol-4-yl)amino)isothiazole-4-carboxamide] | 6.08 nM | 16.1 nM | 3.68 nM |  |  | 
2 | COc1cc(COc2nsc(NC(=O)NCCCCN3CCC(F)(F)C3)c2C(N)=O)cc(OC)c1 [Compound T063, 5-(3-(4-(3,3-difluoropyrrolidin-1-yl)butyl)ureido)-3-((3,5-dimethoxybenzyl)oxy)isothiazole-4-carboxamide] |  | 39.1 nM | 63 nM | 1000 nM | > 60000 nM | 0.0871
3 | CCN1CCC(CCNC(=O)Nc2snc(OCc3ccc4c(c3)OCC4)c2C(N)=O)CC1 [Compound T076, 3-(2,3-dihydrobenzofuran-6-ylmethoxy)-5-[2-(1-ethyl-4-piperidyl)ethylcarbamoylamino]isothiazole-4-carboxamide] | 26.7 nM | 23.8 nM | 12.6 nM |  | 43600 nM | 0.0311
4 | COc1cc(OC)c(F)c(COc2nsc(NC(=O)NCCCCN3CC[C@@H](O)C3)c2C(N)=O)c1F [Compound T135, 3-[(2,6-difluoro-3,5-dimethoxy-phenyl)methoxy]-5-[4-[(3R)-3-hydroxypyrrolidin-1-yl]butylcarbamoylamino]isothiazole-4-carboxamide] |  |  | 1.9 nM | 97 nM | > 60000 nM | 0.02
5 | NC(=O)c1c(OCc2cc(C(=O)NC3CC3)ccc2F)nsc1NC(=O)NCCC1CCN(CCF)CC1 [Compound T108, 3-[[5-(cyclopropylcarbamoyl)-2-fluoro-phenyl]methoxy]-5-[2-[1-(2-fluoroethyl)-4-piperidyl]ethylcarbamoylamino]isothiazole-4-carboxamide] |  |  | 0.72 nM | 621 nM |  | 0.0271
6 | CN1CC[C@@H](CCNC(=O)Nc2snc(OCc3cc4c(cc3F)CCO4)c2C(N)=O)C1 [Compound T102, 3-[(5-fluoro-2,3-dihydrobenzofuran-6-yl)methoxy]-5-[2-[(3R)-1-methylpyrrolidin-3-yl]ethylcarbamoylamino]isothiazole-4-carboxamide] |  |  | 5.5 nM | 142 nM | 9890 nM | 0.0235
7 | COc1ccc(F)c(COc2nsc(NC(=O)NCCCN3CCN(C)CC3)c2C(N)=O)c1F [Compound T107, 3-[(2,6-difluoro-3-methoxy-phenyl)methoxy]-5-[3-(4-methylpiperazin-1-yl)propylcarbamoylamino]isothiazole-4-carboxamide] |  |  | 8.57 nM | 124 nM | 9140 nM | 0.0403
8 | CN(C)CCCn1ncc(Nc2snc(OCc3c(F)cc(Br)cc3F)c2C(N)=O)n1 [Compound T052, 3-((4-bromo-2,6-difluorobenzyl)oxy)-5-((2-(3-(dimethylamino)propyl)-2H-1,2,3-triazol-4-yl)amino)isothiazole-4-carboxamide] | 42.1 nM | 18.7 nM | 8.17 nM |  |  | 
9 | COc1ccc(F)c(COc2nsc(NC(=O)NCCCN3CC[C@H](F)C3)c2C(N)=O)c1F [Compound T120, 3-[(2,6-difluoro-3-methoxy-phenyl)methoxy]-5-[3-[(3S)-3-fluoropyrrolidin-1-yl]propylcarbamoylamino]isothiazole-4-carboxamide] |  |  | 47 nM | 397 nM | 40700 nM | 0.0173

Now from value to molecule:

Row | IC50 (VEGFR1) | IC50 (VEGFR3) | IC50 (VEGFR2) | IC50 (TIE2) | IC50 (EGFR) | fraction unbound at 2 h, 2 μM (melanin) | SMILES
10 |  |  | 41 nM | 471 nM | 13700 nM | 0.0709 | COc1ccc(F)c(COc2nsc(NC(=O)NCCCCN3CCC(F)(F)CC3)c2C(N)=O)c1F [Compound T130, 3-[(2,6-difluoro-3-methoxy-phenyl)methoxy]-5-[4-(4,4-difluoro-1-piperidyl)butylcarbamoylamino]isothiazole-4-carboxamide]
11 |  |  | 13.5 nM | 161 nM | 9710 nM | 0.0402 | COc1ccc(F)c(COc2nsc(NC(=O)NCCCCN3CCC(F)CC3)c2C(N)=O)c1F [Compound T125, 3-[(2,6-difluoro-3-methoxy-phenyl)methoxy]-5-[4-(4-fluoro-1-piperidyl)butylcarbamoylamino]isothiazole-4-carboxamide]
12 | 33 nM | 44 nM | 7.01 nM |  | 52000 nM | 0.0385 | CN1CCN(CCCNC(=O)Nc2snc(OCc3ccc4c(c3)OCC4)c2C(N)=O)CC1 [Compound T077, 3-(2,3-dihydrobenzofuran-6-ylmethoxy)-5-[3-(4-methylpiperazin-1-yl)propylcarbamoylamino]isothiazole-4-carboxamide]
13 | 30 nM |  | 20.9 nM |  | > 60000 nM | 0.0225 | CCNC(=O)c1cccc(COc2nsc(NC(=O)NCCCCN3CCCC3)c2C(N)=O)c1 [Compound T058, 3-((3-(ethylcarbamoyl)benzyl)oxy)-5-(3-(4-(pyrrolidin-1-yl)butyl)ureido)isothiazole-4-carboxamide]
14 |  |  | 17.2 nM | 596 nM |  | 0.031 | COc1ccc(F)c(COc2nsc(NC(=O)NCCCCN3CCCC3)c2C(N)=O)c1 [Compound T092, 3-[(2-fluoro-5-methoxy-phenyl)methoxy]-5-(4-pyrrolidin-1-ylbutylcarbamoylamino)isothiazole-4-carboxamide]
15 |  |  | 9.1 nM | 413 nM | > 60000 nM | 0.0481 | COc1cc(COc2nsc(NC(=O)NCCCCN3CCCC3)c2C(N)=O)c(F)c(OC)c1 [Compound T094, 3-[(2-fluoro-3,5-dimethoxy-phenyl)methoxy]-5-(4-pyrrolidin-1-ylbutylcarbamoylamino)isothiazole-4-carboxamide]
16 |  |  | 14.7 nM | 163 nM | 19200 nM | 0.0363 | COc1ccc(F)c(COc2nsc(NC(=O)NCCCCN3CCOCC3)c2C(N)=O)c1F [Compound T132, 3-[(2,6-difluoro-3-methoxy-phenyl)methoxy]-5-(4-morpholinobutylcarbamoylamino)isothiazole-4-carboxamide]
17 |  |  | 128 nM | 1640 nM | 10000 nM |  | NC(=O)c1c(OCc2ccc3c(c2)CCO3)nsc1NC(=O)NCCCCN1CCCC1 [Compound T044, 3-((2,3-dihydrobenzofuran-5-yl)methoxy)-5-(3-(4-(pyrrolidin-1-yl)butyl)ureido)isothiazole-4-carboxamide]
18 |  |  | 1.05 nM | 5380 nM | 9840 nM |  | NC(=O)c1c(OCc2cc(C(=O)NC3CC3)ccc2F)nsc1NC(=O)NCCCN1CCN(C2CC2)CC1 [Compound T158, 3-[[5-(cyclopropylcarbamoyl)-2-fluoro-phenyl]methoxy]-5-[3-(4-cyclopropylpiperazin-1-yl)propylcarbamoylamino]isothiazole-4-carboxamide]
19 | 37.9 nM |  | 77.8 nM | 10000 nM | > 60000 nM |  | NC(=O)c1c(OCc2cccc(C(=O)NC3CC3)c2)nsc1NC(=O)NCCN1CCCC1 [Compound T066, 3-((3-(cyclopropylcarbamoyl)benzyl)oxy)-5-(3-(2-(pyrrolidin-1-yl)ethyl)ureido)isothiazole-4-carboxamide]
